Data on four compounds can be found in ChEMBL document CHEMBL1126004, “Synthesis and resolution of 7-fluorotryptophans” (Bioorg Med Chem Lett, 1991).

The nature of this assay: Compound was evaluated for relative ratio (Kcat/Km) between catalyst constant (Kcat) and Michaelis-Menten constant (Km) in a reaction with tryptophan indole-lyase (tryptophanase) from Escherichia coli.
Turning to `N[C@@H](Cc1c[nH]c2c(F)cccc12)C(=O)O`, the k cat/Km turned out to be 14%.

Take `N[C@@H](Cc1c[nH]c2c(F)cc(F)cc12)C(=O)O`: the k cat/Km was determined as 30%. Next, `N[C@@H](Cc1c[nH]c2ccccc12)C(=O)O`: 100%; `N[C@@H](Cc1c[nH]c2c(F)ccc(F)c12)C(=O)O`: 6%.
